Assay results published in patent US20260132103A1, “Bumetanide Derivatives for the Therapy of Stroke and Other Neurological Diseases/Disorders Involving NKCCs” (University of Pittsburgh - Of the Commonwealth System of …, priority 2018, published 2026).

Assays:
Format in all cases: in vivo, mouse
[1] = system: transient focal cerebral ischemia (tMCAO) in mice; assay: Neurological function tests (sensorimotor deficits) after tMCAO; conditions: normotensive mice, 1-14 days monitor and behavior test after stroke
Source text: (§1) FIGS. 2A-2D: Efficacy of NKCC1 inhibitors on improving neurological function in mice after tMCAO (see Example 3). (A) Neurological score, (B) corner test, (C) foot-fault test, and (D)-(E) adhesive tape test during 1-14 day after tMCAO. Data are mean±SD, n=4-9. *p<0.05 for DMSO vs STS66, **p<0.05 for DMSO vs STS5, ***p<0.05 for DMSO vs BMT, #p<0.05 for BMT vs STS66, ###p<0.05 for STS5 vs STS66.
(§2) Transient focal cerebral ischemia was induced in mice by intraluminal occlusion of the left middle cerebral artery (MCA) for 50 min as described previously (Chen H et al., 2005). Mice were anesthetized with 3% isoflurane in 70%: 30% N2O/O2 until they were unresponsive to the tail pinch test. Animals were then fitted with a nose cone blowing 1.5% isoflurane for anesthesia maintenance. The left common carotid artery was exposed and the occipital artery branches of the external carotid artery were isolated and coagulated. […]
Neurological functional deficits in mice were assessed in a blinded manner with the following tests: neurological score, adhesive tape removal test, corner test, cylinder test, and grid walking foot-fault test. These tests are established for identifying and quantifying sensorimotor deficits and postural asymmetries (Bederson J B, et al., 1986; Zhang L, et al., 2002; Schaar K L, et al., 2010).

[2] = system: transient focal cerebral ischemia (tMCAO) in mice; assay: Brain infarct volume and swelling after transient focal cerebral ischemia (tMCAO); conditions: 24 h reperfusion, i.p.; for hemispheric edema (hemisphere swelling) / infarct volume: normotensive C57BL/6j mice, half dose at 3 h and 8 h reperfusion, BMT 10, STS5 13, STS66 12 mg/kg/day, mean±SD; for infarct volume: male and female combined
Method: FIGS. 1A-1C: Efficacy of NKCC1 inhibitors in reducing ischemic infarction, cerebral edema, and the post-stroke survival in normotensive mice after tMCAO (see Example 3). (1A) Experimental protocol and data collection. Transient middle cerebral artery occlusion (tMCAO) was induced in normal C57/b6 mice. DMSO, BMT (10 mg/kg body weight), STS5 (13 mg/kg) or STS66 (12 mg/kg) was administered via intraperitoneal injection (i.p.) as described in method. (1 B) Representative TTC staining images in normotensive mice at 24 h reperfusion with quantitative analysis of infarct volume. Data are mean±SD, n=6-13 (male, n=3-9; female, n=3-4, *p<0.05). Scale: 5 mm. (1C) Percentage hemisphere swelling at 24 h reperfusion. Data are mean±SD, n=6-13, *p<0.05. (1D) Body weight change during 1-14 days after tMCAO. Data are mean±SD, n=5-9 (male, n=4; female, n=2, *p<0.05). (1E) Survival curve during 1-14 day after tMCAO. Data are mean±SD, n=5-9 (male, n=3-7; female, n=2, *p<0.05).
Transient focal cerebral ischemia was induced in mice by intraluminal occlusion of the left middle cerebral artery (MCA) for 50 min as described previously (Chen H et al., 2005). Mice were anesthetized with 3% isoflurane in 70%: 30% N2O/O2 until they were unresponsive to the tail pinch test. Animals were then fitted with a nose cone blowing 1.5% isoflurane for anesthesia maintenance. The left common carotid artery was exposed and the occipital artery branches of the external carotid artery were isolated and coagulated. The internal carotid artery was isolated and the extracranial branch was dissected and ligated. A rubber silicon-coated monofilament suture (6-0) was introduced into the internal carotid artery lumen and gently advanced approximately 8-9 mm to block the MCA blood flow for 50 min. The rectal temperature was maintained at 37.0±0.5° C. during surgery through a temperature-controlled heating pad. Achievement of ischemia was confirmed by monitoring regional cerebral blood flow (rCBF) with laser speckle contrast imager (Pericam). For reperfusion, the suture was withdrawn after the MCAO. The incision was closed and the mouse recovered under a heating lamp to maintain the core temperature (36.0-37.0° C.) during the 30-60 min recovery period. After recovery, animals were returned to their cages with free access to food and water.
Vehicle: DMSO (2 ml/kg body weight/day), the NKCC1 inhibitor bumetanide (BMT, 10 mg/kg body weight/day in DMSO), bumetanide's prodrug STS5 (13 mg/kg body weight/day in DMSO), or the novel NKCC1 inhibitor STS66 according to the invention (12 mg/kg body weight/day in DMSO) was administered via intraperitoneal injection (i.p). The initial half dose of the drugs (BMT, STS5, STS66) was given at 3 h after the onset of reperfusion and the second half dose at 8 h reperfusion in the tMCAO model.
At 24 h post-reperfusion, mice were anesthetized with 5% isoflurane and then decapitated. Coronal brain slices (2 mm thickness) were stained with 1% 2,3,5-triphenyltetrazolium chloridemonohydrate (TTC) for 20-30 min and brain slices were scanned (Begum G et al., 2015). Ischemic lesions were traced in each slice in a blinded manner, and the total volume of infarction was calculated with correction for edema, as described by Swanson et al., 1990 using ImageJ software. Infarct areas were summed across all slices and multiplied by slice thickness to yield total infarct volume (mm^3). Brain swelling was determined with the following formula. For tMCAO: swelling (% contralateral hemispheric volume)=[(ipsilateral hemispheric volume)−(contralateral hemispheric volume)]/(contralateral hemispheric volume)×100, as described before (Guo Q G et al., 2009; Sunghee Cho et al., 2005).

[3] = system: transient focal cerebral ischemia (tMCAO) in mice; assay: Grid walking foot-fault test after tMCAO; conditions: day 3 post-stroke
Source text: as §1
as §2, with “coagulated. The internal carotid artery was isolated and the extracranial branch was dissected and ligated.” for “coagulated.”
The grid walking test is sensitive to deficits in descending motor control. […] The data were expressed as the number of foot fault errors made by the forelimbs contralateral to the injured hemisphere as a percentage of total steps (Jun Zhang, et al., 2017).

Structure (SMILES)	sensorimotor deficits [1]	hemispheric edema (hemisphere swelling) [2]	infarct volume [2]	foot-fault rate [3]	infarct volume in female mice ([2]; female mice only, STS5 13, STS66 12 mg/kg/day)
CCCCNc1cc(C(=O)O)cc(S(N)(=O)=O)c1Oc1ccccc1 [BMT, 3-(butylamino)-4-phenoxy-5-sulfamoylbenzoic acid, reference compound]	improved all sensorimotor deficits	15.4±5.9%	65.2±21.7 mm^3		
CCCCNc1cc(CNCC(F)(F)F)cc(S(N)(=O)=O)c1Oc1ccccc1 [STS66, 3-(Butylamino)-2-phenoxy-5-[(2,2,2-trifluoroethylamino)methyl]benzenesulfonamide]	improved all sensorimotor deficits	14.1±6.1%	69.7±17.9 mm^3	12.5±2.5%	74.3±9.2 mm^3
